Consider one compound from BindingDB's records for patent US20240252496 (The Children’s Medical Center, 2024).

By IC50 is commonly meant the concentration that inhibits the measured activity by half. A higher IC50 goes with a need for much substance.

The structures appear in SMILES notation.

Some targets named below: Histone deacetylase 2 (Homo sapiens, UniProt Q92769); Histone deacetylase 3 (Homo sapiens, UniProt O15379); Histone deacetylase 1 (Homo sapiens, UniProt Q13547).
Holding throughout (experiment): Conditioned place preference (CPP) assay

Histone deacetylase 1, sequence (Q13547 whole entry): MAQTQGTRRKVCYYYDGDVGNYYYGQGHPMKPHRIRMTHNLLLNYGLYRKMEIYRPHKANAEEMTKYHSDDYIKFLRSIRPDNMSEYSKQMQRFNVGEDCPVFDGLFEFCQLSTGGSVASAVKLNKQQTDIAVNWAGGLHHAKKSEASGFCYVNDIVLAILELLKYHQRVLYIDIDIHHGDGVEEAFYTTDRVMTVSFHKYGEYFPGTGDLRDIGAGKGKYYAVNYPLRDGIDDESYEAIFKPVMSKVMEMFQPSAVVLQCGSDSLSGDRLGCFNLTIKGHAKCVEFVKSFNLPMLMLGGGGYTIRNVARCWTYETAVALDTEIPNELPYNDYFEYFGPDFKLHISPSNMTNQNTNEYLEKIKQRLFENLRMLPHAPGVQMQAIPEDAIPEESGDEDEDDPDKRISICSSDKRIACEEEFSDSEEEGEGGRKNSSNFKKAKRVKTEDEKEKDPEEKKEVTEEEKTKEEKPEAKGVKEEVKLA
Histone deacetylase 3, sequence (O15379 whole entry): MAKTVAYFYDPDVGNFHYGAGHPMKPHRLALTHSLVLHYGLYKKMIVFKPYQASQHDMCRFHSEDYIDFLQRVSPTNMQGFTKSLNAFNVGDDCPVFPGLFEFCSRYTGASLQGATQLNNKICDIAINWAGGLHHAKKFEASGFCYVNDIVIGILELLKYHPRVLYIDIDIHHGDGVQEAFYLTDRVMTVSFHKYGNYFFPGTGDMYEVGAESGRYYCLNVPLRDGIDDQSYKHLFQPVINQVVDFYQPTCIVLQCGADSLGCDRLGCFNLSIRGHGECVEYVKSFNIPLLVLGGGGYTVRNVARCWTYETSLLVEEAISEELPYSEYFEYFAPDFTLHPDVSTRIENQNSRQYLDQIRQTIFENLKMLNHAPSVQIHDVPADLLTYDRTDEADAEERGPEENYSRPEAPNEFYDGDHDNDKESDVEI
Histone deacetylase 2, sequence (Q92769 whole entry): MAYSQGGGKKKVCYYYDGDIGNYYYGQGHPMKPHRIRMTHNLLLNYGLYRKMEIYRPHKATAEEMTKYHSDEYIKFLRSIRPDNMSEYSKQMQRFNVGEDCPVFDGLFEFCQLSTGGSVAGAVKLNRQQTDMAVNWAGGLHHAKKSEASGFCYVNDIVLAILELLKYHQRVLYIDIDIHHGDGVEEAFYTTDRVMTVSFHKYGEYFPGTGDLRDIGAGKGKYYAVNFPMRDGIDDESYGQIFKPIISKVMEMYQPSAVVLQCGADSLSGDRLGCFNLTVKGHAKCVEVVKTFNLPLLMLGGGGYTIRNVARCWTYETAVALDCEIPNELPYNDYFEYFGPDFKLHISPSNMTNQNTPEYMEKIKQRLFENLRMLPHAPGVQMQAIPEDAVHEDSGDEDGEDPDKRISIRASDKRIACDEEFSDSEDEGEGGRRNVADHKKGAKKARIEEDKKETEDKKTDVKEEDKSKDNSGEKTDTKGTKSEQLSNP

For `COC(c1ccc(F)cc1)(c1ccc(F)cc1)c1ccc(C(=O)NCCCCCCC(=O)NO)cc1` [US20240252496, Example ACY-257], the IC50 was 530 nM at Histone deacetylase 2, 850 nM against Histone deacetylase 3 and 268 nM at Histone deacetylase 1.
